Source: US20090137572A1, “2-substituted-4-heteroaryl-pyrimidines useful for the treatment of proliferative disorders” (priority 2004, published 2009)

Columns and labels:
Assay type in all cases: biochemical
CDK4-cyclin D1 = CDK4-cyclin D1 (Homo sapiens, UniProt P11802); experiment: Kinase assay (radioactive phosphate incorporation), CDK4-cyclin D1; details: read-out: Kinase Inhibition pIC50 CDK4-cyclin D1 (converted)
How it was run: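 Each recombinant kinase was combined with its polypeptide substrate in pH 7.4 assay buffer. Mg/ATP mix carrying [γ-32P]-ATP (100 μM ATP) was then added and the plate incubated at 30° C. After stopping on ice, the reaction was filtered, washed with 75 mM orthophosphoric acid, dried and counted.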

MAPKAP-K1b = MAPKAP-K1b (Homo sapiens, UniProt P51812); experiment: Kinase selectivity profile, MAPKAP-K1b; details: 5 μM test compound, compared to control
Procedure: (§1) The kinase selectivity profiles of selected example compounds were determined, essentially as described (Bain, J.; McLauchlan, H.; Elliott, M.; Cohen, P. Biochemical Journal, 2003, 371, 199.); the results are shown in Tables 3 & 4. For the assays shown in Table 3, the kinases were assayed at the following ATP concentrations: SAPK4, PKBΔph, GSK3b, SAPK3, CK2, MKK1, PIM2, IKKB, ERK8, and PRK2 at 5 μM; JNK, PRAK, ROCK-II, SAPK2b, CDK2, CHK1, MSK1, CSK, P70S6K, PKA, CK1, MAPKAP-K2, SGK, PKCa, PDK1, NEK 7, and MAPKAP-K3 at 20 μM; SAPK2a, LCK, AMPK, MAPK2, DYRK1a, MAPKAP-K1a, NEK-6, NEK2a, PBK, CAMK-1, SRPK-1, JNK3, MNK2, RSK2, MNK1, PKBB, and SmMLCK at 50 μM. For the assays in Table 4 the ATP concentration was 100 μM throughout.

CDK2-cyclin A = CDK2-cyclin A (Homo sapiens, UniProt P24941); experiment: Kinase selectivity profile, CDK2/cyclin A; details: 5 μM test compound, compared to control; ATP 20 μM
Procedure: as §1

PKB = experiment: Kinase selectivity profile, PKB; details: 5 μM test compound, compared to control; ATP 5 μM (PKBΔph)
Procedure: as §1

CK1 = experiment: Kinase selectivity profile, CK1; details: 5 μM test compound, compared to control; ATP 20 μM
Procedure: as §1

MSK1 = MSK1 (Homo sapiens, UniProt O75582); experiment: Kinase selectivity profile, MSK1; details: 5 μM test compound, compared to control; ATP 20 μM
Procedure: as §1

GSK3b = GSK3b (Homo sapiens, UniProt P49841); experiment: Kinase selectivity profile, GSK3b; details: 5 μM test compound, compared to control; ATP 5 μM
Chain of GSK3b (P49841 whole entry, species assumed): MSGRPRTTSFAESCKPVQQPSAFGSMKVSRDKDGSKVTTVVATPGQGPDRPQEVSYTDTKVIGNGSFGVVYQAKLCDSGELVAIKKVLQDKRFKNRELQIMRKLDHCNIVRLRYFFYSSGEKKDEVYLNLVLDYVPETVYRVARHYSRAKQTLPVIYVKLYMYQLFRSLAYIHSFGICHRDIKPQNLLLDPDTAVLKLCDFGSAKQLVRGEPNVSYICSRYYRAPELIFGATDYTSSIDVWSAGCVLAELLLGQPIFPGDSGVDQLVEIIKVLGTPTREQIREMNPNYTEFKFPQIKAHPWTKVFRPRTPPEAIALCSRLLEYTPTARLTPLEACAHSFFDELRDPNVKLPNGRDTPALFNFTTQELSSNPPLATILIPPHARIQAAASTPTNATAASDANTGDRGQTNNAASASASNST
Procedure: as §1

SGK = SGK (Homo sapiens, UniProt O00141); experiment: Kinase selectivity profile, SGK; details: 5 μM test compound, compared to control; ATP 20 μM
Procedure: as §1

PRK2 = PRK2 (Homo sapiens, UniProt Q16513); experiment: Kinase selectivity profile, PRK2; details: 5 μM test compound, compared to control; ATP 5 μM
Procedure: as §1

PIM2 = PIM2 (Homo sapiens, UniProt Q9P1W9); experiment: Kinase selectivity profile, PIM2; details: 5 μM test compound, compared to control; ATP 5 μM
Chain of PIM2 (Q9P1W9 whole entry, species assumed): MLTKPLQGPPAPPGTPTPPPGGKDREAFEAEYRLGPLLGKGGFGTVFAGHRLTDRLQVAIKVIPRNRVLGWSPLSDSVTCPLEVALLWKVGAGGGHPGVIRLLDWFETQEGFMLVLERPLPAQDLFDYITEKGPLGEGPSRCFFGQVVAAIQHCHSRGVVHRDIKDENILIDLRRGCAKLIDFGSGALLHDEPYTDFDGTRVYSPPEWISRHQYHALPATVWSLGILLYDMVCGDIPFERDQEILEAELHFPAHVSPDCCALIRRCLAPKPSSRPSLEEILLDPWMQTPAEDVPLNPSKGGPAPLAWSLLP
Procedure: as §1

MAPK2/ERK2 = MAPK2/ERK2 (Homo sapiens, UniProt P28482); experiment: Kinase selectivity profile, MAPK2/ERK2; details: 5 μM test compound, compared to control; ATP 50 μM
Procedure: as §1

NEK6 = NEK6 (Homo sapiens, UniProt Q9HC98); experiment: Kinase selectivity profile, NEK6; details: 5 μM test compound, compared to control; ATP 50 μM
Chain of NEK6 (Q9HC98 whole entry, species assumed): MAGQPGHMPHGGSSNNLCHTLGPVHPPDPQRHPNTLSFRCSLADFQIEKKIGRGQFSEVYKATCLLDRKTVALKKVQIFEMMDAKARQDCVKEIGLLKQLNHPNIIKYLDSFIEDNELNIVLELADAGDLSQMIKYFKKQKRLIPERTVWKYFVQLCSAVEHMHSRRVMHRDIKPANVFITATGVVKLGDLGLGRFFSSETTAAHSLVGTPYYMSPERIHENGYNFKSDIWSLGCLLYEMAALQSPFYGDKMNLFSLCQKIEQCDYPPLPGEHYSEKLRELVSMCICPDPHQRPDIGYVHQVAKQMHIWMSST
Procedure: as §1

MNK2 = MNK2 (Homo sapiens, UniProt Q9HBH9); experiment: Kinase selectivity profile, MNK2; details: 5 μM test compound, compared to control; ATP 50 μM
Chain of MNK2 (Q9HBH9 whole entry, species assumed): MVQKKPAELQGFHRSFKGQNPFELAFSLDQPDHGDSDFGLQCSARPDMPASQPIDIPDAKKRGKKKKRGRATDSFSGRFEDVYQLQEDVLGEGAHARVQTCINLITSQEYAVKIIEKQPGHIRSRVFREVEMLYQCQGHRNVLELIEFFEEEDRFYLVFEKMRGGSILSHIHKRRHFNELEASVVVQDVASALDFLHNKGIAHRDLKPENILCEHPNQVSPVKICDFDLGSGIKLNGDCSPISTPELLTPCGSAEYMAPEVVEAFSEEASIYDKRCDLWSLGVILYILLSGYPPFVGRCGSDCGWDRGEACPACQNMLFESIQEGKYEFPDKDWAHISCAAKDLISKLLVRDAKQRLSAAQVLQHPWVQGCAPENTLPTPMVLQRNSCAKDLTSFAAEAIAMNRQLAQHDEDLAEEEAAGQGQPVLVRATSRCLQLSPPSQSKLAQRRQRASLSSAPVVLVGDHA
Procedure: as §1

PKBb = PKBb (Homo sapiens, UniProt P31751); experiment: Kinase selectivity profile, PKBb; details: 5 μM test compound, compared to control; ATP 50 μM
Chain of PKBb (P31751 whole entry): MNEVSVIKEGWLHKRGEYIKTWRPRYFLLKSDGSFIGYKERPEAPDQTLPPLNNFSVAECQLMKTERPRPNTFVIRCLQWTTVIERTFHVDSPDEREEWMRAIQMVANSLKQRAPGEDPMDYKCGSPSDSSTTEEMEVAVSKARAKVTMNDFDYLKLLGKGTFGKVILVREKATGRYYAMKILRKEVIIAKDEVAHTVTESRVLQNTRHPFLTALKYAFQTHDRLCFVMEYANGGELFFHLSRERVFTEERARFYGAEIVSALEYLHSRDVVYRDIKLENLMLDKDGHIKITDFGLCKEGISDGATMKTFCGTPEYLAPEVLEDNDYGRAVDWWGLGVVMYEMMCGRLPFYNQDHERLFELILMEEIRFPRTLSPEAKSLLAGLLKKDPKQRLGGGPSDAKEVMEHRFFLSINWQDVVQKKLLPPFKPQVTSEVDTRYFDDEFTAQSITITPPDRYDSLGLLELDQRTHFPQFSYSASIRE
Procedure: as §1

p70 S6K = p70 S6K (Homo sapiens, UniProt P23443); experiment: Kinase selectivity profile, p70 S6K; details: 5 μM test compound, compared to control; ATP 20 μM
Procedure: as §1

CHK1 = CHK1 (Homo sapiens, UniProt O14757); experiment: Kinase selectivity profile, CHK1; details: 5 μM test compound, compared to control; ATP 20 μM
Chain of CHK1 (O14757 whole entry, species assumed): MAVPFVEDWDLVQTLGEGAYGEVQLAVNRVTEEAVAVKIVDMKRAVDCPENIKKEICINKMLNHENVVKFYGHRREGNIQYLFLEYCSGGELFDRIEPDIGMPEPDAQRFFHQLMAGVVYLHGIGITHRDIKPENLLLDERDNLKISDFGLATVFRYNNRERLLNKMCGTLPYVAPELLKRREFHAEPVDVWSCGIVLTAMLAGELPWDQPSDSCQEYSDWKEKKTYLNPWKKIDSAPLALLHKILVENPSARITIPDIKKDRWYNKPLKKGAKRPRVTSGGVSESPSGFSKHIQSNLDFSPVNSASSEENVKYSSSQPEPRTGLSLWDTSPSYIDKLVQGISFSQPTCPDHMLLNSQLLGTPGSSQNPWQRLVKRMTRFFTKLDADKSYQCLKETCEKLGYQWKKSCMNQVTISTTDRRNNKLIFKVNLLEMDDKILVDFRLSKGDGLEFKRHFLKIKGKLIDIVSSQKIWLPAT
Procedure: as §1

PKA = PKA (Homo sapiens, UniProt P17612); experiment: Kinase selectivity profile, PKA; details: 5 μM test compound, compared to control; ATP 20 μM
Procedure: as §1

CSK = CSK (Homo sapiens, UniProt P41240); experiment: Kinase selectivity profile, CSK; details: 5 μM test compound, compared to control; ATP 20 μM
Procedure: as §1

JNK3 = JNK3 (Homo sapiens, UniProt P53779); experiment: Kinase selectivity profile, JNK3; details: 5 μM test compound, compared to control; ATP 50 μM
Procedure: as §1

smMLCK = smMLCK (Homo sapiens, UniProt Q15746); experiment: Kinase selectivity profile, smMLCK; details: 5 μM test compound, compared to control; ATP 50 μM
Procedure: as §1

JNK/SAPK1c = JNK/SAPK1c (Homo sapiens, UniProt P45983); experiment: Kinase selectivity profile, JNK/SAPK1c; details: 5 μM test compound, compared to control; ATP 20 μM
Chain of JNK/SAPK1c (P45983 whole entry): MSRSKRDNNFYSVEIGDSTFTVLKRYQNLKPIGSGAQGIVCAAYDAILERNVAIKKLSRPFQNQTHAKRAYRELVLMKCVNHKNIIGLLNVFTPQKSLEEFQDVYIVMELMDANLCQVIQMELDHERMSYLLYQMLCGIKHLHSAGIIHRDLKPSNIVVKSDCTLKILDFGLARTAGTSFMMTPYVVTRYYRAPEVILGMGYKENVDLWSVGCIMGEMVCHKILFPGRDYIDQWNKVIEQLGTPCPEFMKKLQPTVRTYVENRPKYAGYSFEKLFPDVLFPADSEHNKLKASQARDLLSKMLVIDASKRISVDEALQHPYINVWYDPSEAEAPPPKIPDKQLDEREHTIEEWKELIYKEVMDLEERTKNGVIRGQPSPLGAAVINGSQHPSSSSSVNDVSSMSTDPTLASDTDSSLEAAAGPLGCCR
Procedure: as §1

MAPKAP-K2 = MAPKAP-K2 (Homo sapiens, UniProt P49137); experiment: Kinase selectivity profile, MAPKAP-K2; details: 5 μM test compound, compared to control; ATP 20 μM
Procedure: as §1

Aurora B = Aurora B (Homo sapiens, UniProt Q96GD4); experiment: Kinase selectivity profile, Aurora B; details: 5 μM test compound, compared to control
Chain of Aurora B (Q96GD4 whole entry): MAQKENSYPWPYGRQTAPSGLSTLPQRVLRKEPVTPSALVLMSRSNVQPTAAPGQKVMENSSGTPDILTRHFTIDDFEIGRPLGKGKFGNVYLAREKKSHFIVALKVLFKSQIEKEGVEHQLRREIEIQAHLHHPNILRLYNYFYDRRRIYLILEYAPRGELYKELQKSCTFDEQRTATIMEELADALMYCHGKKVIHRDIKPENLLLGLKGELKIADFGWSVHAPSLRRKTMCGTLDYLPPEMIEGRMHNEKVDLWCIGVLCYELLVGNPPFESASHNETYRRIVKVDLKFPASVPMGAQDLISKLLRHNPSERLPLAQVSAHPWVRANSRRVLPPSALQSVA
Procedure: as §1

PRAK = PRAK (Homo sapiens, UniProt Q8IW41); experiment: Kinase selectivity profile, PRAK; details: 5 μM test compound, compared to control; ATP 20 μM
Procedure: as §1

Lck = Lck (Homo sapiens, UniProt P06239); experiment: Kinase selectivity profile, Lck; details: 5 μM test compound, compared to control; ATP 50 μM
Procedure: as §1

NEK7 = NEK7 (Homo sapiens, UniProt Q8TDX7); experiment: Kinase selectivity profile, NEK7; details: 5 μM test compound, compared to control; ATP 20 μM
Chain of NEK7 (Q8TDX7 whole entry, species assumed): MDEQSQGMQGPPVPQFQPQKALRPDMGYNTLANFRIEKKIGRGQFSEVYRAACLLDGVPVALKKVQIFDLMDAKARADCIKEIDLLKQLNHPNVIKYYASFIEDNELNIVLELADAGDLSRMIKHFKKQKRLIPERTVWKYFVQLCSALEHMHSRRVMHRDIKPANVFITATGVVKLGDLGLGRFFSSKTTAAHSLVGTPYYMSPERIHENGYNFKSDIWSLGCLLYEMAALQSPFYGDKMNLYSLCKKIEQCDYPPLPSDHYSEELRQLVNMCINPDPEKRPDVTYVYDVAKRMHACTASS
Procedure: as §1

NEK2a = NEK2a (Homo sapiens, UniProt P51955); experiment: Kinase selectivity profile, NEK2a; details: 5 μM test compound, compared to control; ATP 50 μM
Chain of NEK2a (P51955 whole entry, species assumed): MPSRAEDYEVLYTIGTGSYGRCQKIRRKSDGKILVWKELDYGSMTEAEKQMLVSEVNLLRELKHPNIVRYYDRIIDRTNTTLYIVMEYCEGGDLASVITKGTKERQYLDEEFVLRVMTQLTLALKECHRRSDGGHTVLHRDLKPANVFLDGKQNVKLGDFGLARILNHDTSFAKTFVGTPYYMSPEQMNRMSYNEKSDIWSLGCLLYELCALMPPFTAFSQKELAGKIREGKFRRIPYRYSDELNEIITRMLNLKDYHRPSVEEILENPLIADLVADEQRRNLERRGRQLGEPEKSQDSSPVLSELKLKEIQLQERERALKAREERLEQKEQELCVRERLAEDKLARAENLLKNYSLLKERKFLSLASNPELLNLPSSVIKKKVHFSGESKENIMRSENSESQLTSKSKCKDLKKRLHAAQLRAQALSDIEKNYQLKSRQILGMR
Procedure: as §1

Chain of CDK4-cyclin D1 (P11802 whole entry): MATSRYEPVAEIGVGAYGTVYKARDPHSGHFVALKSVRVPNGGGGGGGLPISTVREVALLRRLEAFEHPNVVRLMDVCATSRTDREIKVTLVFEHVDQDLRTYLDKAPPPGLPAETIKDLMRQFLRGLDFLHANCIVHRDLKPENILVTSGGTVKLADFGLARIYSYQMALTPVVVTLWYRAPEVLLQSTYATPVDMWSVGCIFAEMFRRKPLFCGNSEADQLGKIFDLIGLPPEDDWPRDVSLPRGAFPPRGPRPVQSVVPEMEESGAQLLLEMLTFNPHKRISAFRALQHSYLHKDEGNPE
Chain of CDK4-cyclin D1 (P24385 whole entry partner): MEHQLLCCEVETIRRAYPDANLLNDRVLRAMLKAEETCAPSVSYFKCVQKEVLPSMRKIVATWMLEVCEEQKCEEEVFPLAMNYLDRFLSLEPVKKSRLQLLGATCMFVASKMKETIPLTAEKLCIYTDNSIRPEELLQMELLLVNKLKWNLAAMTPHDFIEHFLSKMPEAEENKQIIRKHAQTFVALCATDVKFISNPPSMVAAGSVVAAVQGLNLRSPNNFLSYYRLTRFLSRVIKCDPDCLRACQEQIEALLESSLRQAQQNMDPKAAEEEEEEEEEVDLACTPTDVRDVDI

SMILES	IC50 (CDK4-cyclin D1) [nM]	remaining activity at 5 µM (MAPKAP-K1b) [%]	remaining activity at 5 µM (CDK2-cyclin A) [%]	Remaining activity (%) PKB (PKB) [%]	Remaining activity (%) CK1 (CK1) [%]	remaining activity at 5 µM (MSK1) [%]	remaining activity at 5 µM (GSK3b) [%]	remaining activity at 5 µM (SGK) [%]	remaining activity at 5 µM (PRK2) [%]	remaining activity at 5 µM (PIM2) [%]	remaining activity at 5 µM (MAPK2/ERK2) [%]	remaining activity at 5 µM (NEK6) [%]	remaining activity at 5 µM (MNK2) [%]	remaining activity at 5 µM (PKBb) [%]	remaining activity at 5 µM (p70 S6K) [%]	remaining activity at 5 µM (CHK1) [%]	remaining activity at 5 µM (PKA) [%]	remaining activity at 5 µM (CSK) [%]	remaining activity at 5 µM (JNK3) [%]	remaining activity at 5 µM (smMLCK) [%]	also measured
CNc1nc(C)c(-c2ccnc(Nc3cccc(S(N)(=O)=O)c3)n2)s1 [Compound 19, 3-[4-(4-Methyl-2-methylamino-thiazol-5-yl)-pyrimidin-2-ylamino]-benzenesulfonamide]	15.8	–	–	–	–	–	–	–	–	–	–	–	–	–	–	–	–	–	–	–	–
CNc1nc(C)c(-c2ccnc(Nc3cccc(S(C)(=O)=O)c3)n2)s1 [Compound 27, (3-Methanesulfonyl-phenyl)-[4-(4-methyl-2-methylamino-thiazol-5-yl)-pyrimidin-2-yl]-amine]	158	–	–	–	–	–	–	–	–	–	–	–	–	–	–	–	–	–	–	–	–
COCCNS(=O)(=O)c1cccc(Nc2nccc(-c3sc(N)nc3C)n2)c1 [Compound 55, 3-[4-(2-Amino-4-methyl-thiazol-5-yl)-pyrimidin-2-ylamino]-N-(2-methoxy-ethyl)-benzenesulfonamide]	1580	–	–	–	–	–	–	–	–	–	–	–	–	–	–	–	–	–	–	–	–
CCNc1nc(C)c(-c2ccnc(Nc3ccc(N4CCNCC4)cc3)n2)s1 [Compound 59, [4-(2-Ethylamino-4-methyl-thiazol-5-yl)-pyrimidin-2-yl]-(4-piperazin-1-yl-phenyl)-amine]	39.8	17	1	82	3	45	37	0	8	80	59	47	20	75	13	10	22	14	13	10	remaining activity at 5 µM (JNK/SAPK1c): 2%; remaining activity at 5 µM (MAPKAP-K2): 84%; remaining activity at 5 µM (Aurora B): 4%; remaining activity at 5 µM (PRAK): 44%; remaining activity at 5 µM (Lck): 1%; remaining activity at 5 µM (NEK7): 50%; remaining activity at 5 µM (NEK2a): 9%
Cc1nc(CS(=O)(=O)c2cccs2)sc1-c1ccnc(Nc2ccc(N3CCOCC3)cc2)n1 [Compound 138, {4-[4-Methyl-2-(thiophene-2-sulfonylmethyl)-thiazol-5-yl]-pyrimidin-2-yl}-(4-morpholin-4-yl-phenyl)-amine]	–	48	9	91	27	69	21	5	78	93	39	80	27	92	41	55	29	30	15	44	remaining activity at 5 µM (JNK/SAPK1c): 10%; remaining activity at 5 µM (MAPKAP-K2): 84%; remaining activity at 5 µM (Aurora B): 5%; remaining activity at 5 µM (PRAK): 59%; remaining activity at 5 µM (Lck): 7%; remaining activity at 5 µM (NEK7): 79%; remaining activity at 5 µM (NEK2a): 6%
